Laboratory results taken from ChEMBL document CHEMBL1201862, “PubChem BioAssay data set” (2004).
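These data come from cells grown in 96-well plates and exposed to compound for 48 hours at five concentrations. GI50: concentration for 50% inhibition of growth.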 Active and inactive are the calls of the source. Cut-off read from the data, not from the text of the source: active = GI50 up to about 1.1 µM and inactive = higher.

Experiments:
Assay in all cases: NCI anticancer screen, dose series, 48 h
NCI-H460 = tested on: NCI-H460
OVCAR-3 = tested on: OVCAR-3
SNB-19 = tested on: SNB-19
SF-539 = tested on: SF-539
NCI-H23 = tested on: NCI-H23
HL-60 = tested on: HL-60
HT-29 = tested on: HT-29
SF-268 = tested on: SF-268
SN12C = tested on: SN12C
SK-MEL-5 = tested on: SK-MEL-5
RPMI-8226 = tested on: RPMI-8226
KM12 = tested on: KM12
U-251 = tested on: U-251
COLO 205 = tested on: COLO 205
K562 = tested on: K562
NCI-H522 = tested on: NCI-H522
RXF 393 = tested on: RXF 393

SMILES	GI50 (NCI-H460)	GI50 (OVCAR-3)	GI50 (SNB-19)	GI50 (SF-539)	GI50 (NCI-H23)	GI50 (HL-60)	GI50 (HT-29)	GI50 (SF-268)	GI50 (SN12C)	GI50 (SK-MEL-5)	GI50 (RPMI-8226)	GI50 (KM12)	GI50 (U-251)	GI50 (COLO 205)	GI50 (K562)	GI50 (NCI-H522)	GI50 (RXF 393)
COc1cc2c3c(c1OC)C(=O)C=C3N(S(=O)(=O)c1ccc(C)cc1)CC2	> 100 µM (inactive)	> 100 µM (inactive)	> 100 µM (inactive)	52.7 µM (inactive)	> 100 µM (inactive)	> 100 µM (inactive)	> 100 µM (inactive)	> 100 µM (inactive)	> 100 µM (inactive)	> 100 µM (inactive)	> 100 µM (inactive)	> 100 µM (inactive)	84.5 µM (inactive)	> 100 µM (inactive)	> 100 µM (inactive)	10.4 µM (inactive)	–
CN1C(=O)c2cccc3c([N+](=O)[O-])ccc(c23)C1=O	2.56 µM (inactive)	3.19 µM (inactive)	14.2 µM (inactive)	13.2 µM (inactive)	11.9 µM (inactive)	–	–	9.68 µM (inactive)	12.4 µM (inactive)	18.3 µM (inactive)	–	4.94 µM (inactive)	3.7 µM (inactive)	7.26 µM (inactive)	4.1 µM (inactive)	1.36 µM (inactive)	3.1 µM (inactive)
Cc1ccc(S(=O)(=O)ON/N=C2/C3OC3[C@@H]3CCCC[C@H]23)cc1 (some centres not stated)	> 100 µM (inactive)	> 100 µM (inactive)	> 100 µM (inactive)	> 100 µM (inactive)	> 100 µM (inactive)	> 100 µM (inactive)	> 100 µM (inactive)	> 100 µM (inactive)	> 100 µM (inactive)	–	> 100 µM (inactive)	> 100 µM (inactive)	> 100 µM (inactive)	> 100 µM (inactive)	> 100 µM (inactive)	> 100 µM (inactive)	39.1 µM (inactive)
C#CCSc1nc(N)c2ncn(C3OC(COP(=O)(O)O)C(O)C3O)c2n1 (configuration not stated)	> 239 µM (inactive)	> 239 µM (inactive)	> 239 µM (inactive)	> 239 µM (inactive)	> 239 µM (inactive)	> 239 µM (inactive)	> 239 µM (inactive)	> 239 µM (inactive)	> 239 µM (inactive)	> 239 µM (inactive)	> 239 µM (inactive)	> 239 µM (inactive)	–	> 239 µM (inactive)	> 239 µM (inactive)	> 239 µM (inactive)	–
Nc1ncnc2c1ncn2C1OC(CSC(F)F)C(O)C1O (configuration not stated)	> 100 µM (inactive)	> 100 µM (inactive)	–	> 100 µM (inactive)	> 100 µM (inactive)	> 100 µM (inactive)	> 100 µM (inactive)	> 100 µM (inactive)	> 100 µM (inactive)	> 100 µM (inactive)	> 100 µM (inactive)	> 100 µM (inactive)	> 100 µM (inactive)	> 100 µM (inactive)	> 100 µM (inactive)	86.3 µM (inactive)	–
CCOC(=O)C1C(=O)C(=O)N2CCc3c([nH]c4ccccc34)C12 (configuration not stated)	–	> 100 µM (inactive)	> 100 µM (inactive)	> 100 µM (inactive)	> 100 µM (inactive)	> 100 µM (inactive)	> 100 µM (inactive)	> 100 µM (inactive)	> 100 µM (inactive)	> 100 µM (inactive)	> 100 µM (inactive)	> 100 µM (inactive)	> 100 µM (inactive)	> 100 µM (inactive)	> 100 µM (inactive)	> 100 µM (inactive)	> 100 µM (inactive)
O=S1(=O)CS(=O)(=O)OCCCCCO1	> 100 µM (inactive)	–	> 100 µM (inactive)	–	> 100 µM (inactive)	–	> 100 µM (inactive)	> 100 µM (inactive)	> 100 µM (inactive)	–	> 100 µM (inactive)	> 100 µM (inactive)	> 100 µM (inactive)	> 100 µM (inactive)	> 100 µM (inactive)	> 100 µM (inactive)	> 100 µM (inactive)
COc1ccc(CNc2cnc3cc(N)ccc3n2)cc1OC	> 100 µM (inactive)	> 100 µM (inactive)	> 100 µM (inactive)	> 100 µM (inactive)	–	> 100 µM (inactive)	> 100 µM (inactive)	> 100 µM (inactive)	> 100 µM (inactive)	> 100 µM (inactive)	> 100 µM (inactive)	> 100 µM (inactive)	–	> 100 µM (inactive)	> 100 µM (inactive)	> 100 µM (inactive)	–
Cc1cn(C2CC(CCCO)C(CO)O2)c(=O)[nH]c1=O (configuration not stated)	> 100 µM (inactive)	> 100 µM (inactive)	> 100 µM (inactive)	–	> 100 µM (inactive)	> 100 µM (inactive)	> 100 µM (inactive)	> 100 µM (inactive)	> 100 µM (inactive)	> 100 µM (inactive)	> 100 µM (inactive)	> 100 µM (inactive)	> 100 µM (inactive)	> 100 µM (inactive)	> 100 µM (inactive)	> 100 µM (inactive)	> 100 µM (inactive)
Cc1c(C(=O)c2ccccc2C(=O)O)c2ccccc2n1C	> 100 µM (inactive)	> 100 µM (inactive)	–	> 100 µM (inactive)	> 100 µM (inactive)	> 100 µM (inactive)	> 100 µM (inactive)	–	–	> 100 µM (inactive)	> 100 µM (inactive)	> 100 µM (inactive)	> 100 µM (inactive)	–	> 100 µM (inactive)	–	> 100 µM (inactive)
CC(C)(C)C#COC(=O)c1ccccc1	> 100 µM (inactive)	> 100 µM (inactive)	> 100 µM (inactive)	> 100 µM (inactive)	> 100 µM (inactive)	> 100 µM (inactive)	> 100 µM (inactive)	> 100 µM (inactive)	> 100 µM (inactive)	> 100 µM (inactive)	> 100 µM (inactive)	> 100 µM (inactive)	> 100 µM (inactive)	> 100 µM (inactive)	> 100 µM (inactive)	> 100 µM (inactive)	–
Cc1ccc(/C=C(\C#N)c2ccccc2)cc1	> 100 µM (inactive)	> 100 µM (inactive)	–	> 100 µM (inactive)	> 100 µM (inactive)	–	> 100 µM (inactive)	> 100 µM (inactive)	> 100 µM (inactive)	> 100 µM (inactive)	> 100 µM (inactive)	> 100 µM (inactive)	> 100 µM (inactive)	> 100 µM (inactive)	> 100 µM (inactive)	> 100 µM (inactive)	> 100 µM (inactive)
CCOC(=O)[C@H]1Nc2ccc(Cl)cc2[C@H]2CCC[C@@H]12	> 100 µM (inactive)	61.4 µM (inactive)	> 100 µM (inactive)	> 100 µM (inactive)	> 100 µM (inactive)	–	36.7 µM (inactive)	> 100 µM (inactive)	> 100 µM (inactive)	71.6 µM (inactive)	> 100 µM (inactive)	> 100 µM (inactive)	> 100 µM (inactive)	> 100 µM (inactive)	> 100 µM (inactive)	31.5 µM (inactive)	17.9 µM (inactive)
Cc1cc(C)nc(NS(=O)(=O)c2ccc(Nc3c4ccccc4nc4c(C(=O)N5CCN(CCO)CC5)cccc34)cc2)n1	> 100 µM (inactive)	> 100 µM (inactive)	> 100 µM (inactive)	> 100 µM (inactive)	> 100 µM (inactive)	> 100 µM (inactive)	> 100 µM (inactive)	> 100 µM (inactive)	> 100 µM (inactive)	> 100 µM (inactive)	–	> 100 µM (inactive)	> 100 µM (inactive)	> 100 µM (inactive)	> 100 µM (inactive)	–	> 100 µM (inactive)
CC(C)N(C(=O)C12C3C4C1C1C4(C#N)C3C12C(=O)O)C(C)C (configuration not stated)	> 67.3 µM (inactive)	> 100 µM (inactive)	> 100 µM (inactive)	> 100 µM (inactive)	> 100 µM (inactive)	> 45.5 µM (inactive)	> 100 µM (inactive)	> 100 µM (inactive)	> 100 µM (inactive)	> 100 µM (inactive)	> 43.1 µM (inactive)	> 100 µM (inactive)	> 100 µM (inactive)	> 100 µM (inactive)	> 69.8 µM (inactive)	> 69.3 µM (inactive)	–
OC1CC(O)O[C@H](c2ccccc2)C1 (some centres not stated)	> 100 µM (inactive)	> 100 µM (inactive)	> 100 µM (inactive)	> 100 µM (inactive)	> 100 µM (inactive)	> 100 µM (inactive)	> 100 µM (inactive)	> 100 µM (inactive)	> 100 µM (inactive)	> 100 µM (inactive)	> 100 µM (inactive)	> 100 µM (inactive)	–	> 100 µM (inactive)	> 100 µM (inactive)	–	> 100 µM (inactive)
Cc1c2cc[n+](C)cc2c(C)c2c1[nH]c1ccc(Oc3ccccc3)cc12	–	1.6 µM (inactive)	0.67 µM (active)	1.88 µM (inactive)	0.515 µM (active)	–	0.764 µM (active)	0.738 µM (active)	0.381 µM (active)	0.794 µM (active)	1.62 µM (inactive)	0.59 µM (active)	0.308 µM (active)	1.1 µM (active)	0.383 µM (active)	–	–
c1ccc2nc(-c3ccc4c(c3)OCO4)ccc2c1	34.5 µM (inactive)	26.4 µM (inactive)	73.5 µM (inactive)	56.9 µM (inactive)	47.1 µM (inactive)	29.1 µM (inactive)	24.7 µM (inactive)	37.7 µM (inactive)	43.2 µM (inactive)	–	–	24.7 µM (inactive)	53.6 µM (inactive)	74.6 µM (inactive)	–	31.8 µM (inactive)	15.2 µM (inactive)
